Key:
[1] = test system: armyworm (Spodoptera frugiperda); test: Spodoptera frugiperda test (SPODFR spray treatment), Example 15; assay type: in vivo; conditions: application rate 100 g/ha, maize leaf discs sprayed, after 7 days
Protocol: Spodoptera frugiperda Test (SPODFR Spray Treatment)
• Solvent: 78.0 parts by weight of acetone • 1.5 parts by weight of dimethylformamide • Emulsifier: 0.5 part by weight of alkylaryl polyglycol ether
To prepare an appropriate active ingredient formulation, 1 part by weight of active ingredient is mixed with the stated amounts of solvent and emulsifier, and the concentrate is diluted with emulsifier-containing water to the desired concentration. Leaf discs from maize (Zea mays) are sprayed with an active ingredient formulation of the desired concentration and, after drying, populated with caterpillars of the armyworm (Spodoptera frugiperda).
After 7 days, the efficacy in % is determined. 100% means that all caterpillars were killed; 0% means that no caterpillars were killed.

[2] = logP by HPLC on reverse-phase column (EEC Directive 79/831 Annex V.A8); assay type: physicochemical; conditions: HPLC-MS
Protocol: The logP values reported in the above Tables and Preparation Examples were determined according to EEC Directive 79/831 Annex V.A8 by HPLC (High Performance Liquid Chromatography) on a reverse-phase column (C18). Temperature 43° C.

Row | SMILES | efficacy in % [1] [%] | logP [2] | logP ([2]; HPLC on reverse-phase column)
1 | C#CC(C)(C)NC(=O)c1ccc(/C=C/C(=O)NC(c2cccc(C(F)(F)F)c2)C(F)(F)F)cc1Cl (racemic) [Ia-196] | 83 | HPLC-MS: logP = 3.64; mass | 
2 | N#Cc1cnn(-c2ccc(/C=C/C(=O)NC(c3cccc(C(F)(F)F)c3)C(F)(F)F)cc2Cl)c1 (racemic) [Ia-200] | 100 | HPLC-MS: logP = 3.83; mass | 
3 | O=C(/C=C/c1ccc(C(=O)Nc2ccc(F)cn2)c(Cl)c1)NC(c1cccc(C(F)(F)F)c1)C(F)(F)F (racemic) [Ia-203] | 100 | HPLC-MS: logP = 3.84; mass | 
4 | O=C(/C=C/c1ccc(C(=O)Nc2ccc([N+](=O)[O-])cn2)c(Cl)c1)NC(c1cccc(C(F)(F)F)c1)C(F)(F)F (racemic) [Ia-204] | 100 | HPLC-MS: logP = 3.95; mass | 
5 | N#Cc1ccc(NC(=O)c2ccc(/C=C/C(=O)NC(c3cccc(C(F)(F)F)c3)C(F)(F)F)cc2Cl)nc1 (racemic) [Ia-205] | 100 | HPLC-MS: logP = 3.72; mass | 
6 | O=C(/C=C/c1ccc(-n2cnc(Cl)n2)c(C(F)(F)F)c1)NC(c1cccc(C(F)(F)F)c1)C(F)(F)F (racemic) [Ia-208] | 100 | HPLC-MS: logP = 4.02; mass | 
7 | O=C(/C=C/c1ccc(-n2cncn2)c(Cl)c1)NC(c1ccc(F)c(Cl)c1)C(F)(F)F (racemic) [Ia-209] | 83 | HPLC-MS: logP = 3.15; mass | 
8 | O=C(/C=C/c1ccc(C(=O)Nc2ccc(F)cn2)c(C(F)(F)F)c1)NC(c1cccc(C(F)(F)F)c1)C(F)(F)F (racemic) [Ia-210] | 100 | HPLC-MS: logP = 3.93; mass | 
9 | N#Cc1ccc(NC(=O)c2ccc(/C=C/C(=O)NC(c3cccc(C(F)(F)F)c3)C(F)(F)F)cc2C(F)(F)F)nc1 (racemic) [Ia-211] | 100 | HPLC-MS: logP = 3.82; mass | 
10 | O=C(/C=C/c1ccc(C(=O)Nc2ccc(F)cn2)c(Br)c1)NC(c1cccc(C(F)(F)F)c1)C(F)(F)F (racemic) [Ia-212] | 100 | HPLC-MS: logP = 3.87; mass | 
11 | N#Cc1ccc(NC(=O)c2ccc(/C=C/C(=O)NC(c3cccc(C(F)(F)F)c3)C(F)(F)F)cc2Br)nc1 (racemic) [Ia-214] | 100 | HPLC-MS: logP = 3.75; mass | 
12 | O=C(/C=C/c1ccc(C(=O)NCc2ccc(F)cn2)c(Cl)c1)NC(c1cccc(C(F)(F)F)c1)C(F)(F)F (stereo not shown) [Ia-236] |  | HPLC-MS: logP = 3.15; mass | 
13 | CCC(=O)NCc1ccc(/C=C/C(=O)NC(c2cccc(C(F)(F)F)c2)C(F)(F)F)cc1C(F)(F)F (stereo not shown) [Ia-238] |  | HPLC-MS: logP = 3.51; mass | 
14 | O=C(/C=C/c1ccc(CNC(=O)C2CC2)c(C(F)(F)F)c1)NC(c1cccc(C(F)(F)F)c1)C(F)(F)F (stereo not shown) [Ia-240] |  | HPLC-MS: logP = 3.76; mass | 
15 | CCC(=O)NCc1ccc(/C=C/C(=O)NC(c2cccc(C(F)(F)F)c2)C(F)(F)F)cc1 (stereo not shown) [Ia-241] |  | HPLC-MS: logP = 2.8; mass | 
16 | CS(=O)(=O)c1cccc(C(NC(=O)/C=C/c2ccc(C(=O)NC3CC3)c(C(F)(F)F)c2)C(F)(F)F)c1 (stereo not shown) [Ia-243] |  | HPLC MS: logP = 2.31; mass | 
17 | CS(=O)(=O)c1cccc(C(NC(=O)/C=C/c2ccc(C(=O)Nc3ccccn3)c(C(F)(F)F)c2)C(F)(F)F)c1 (stereo not shown) [Ia-244] |  | HPLC-MS: logP = 2.62; mass | 
18 | CC(=O)NCc1ccc(/C=C/C(=O)NC(c2cccc([S+](C)[O-])c2)C(F)(F)F)cc1C(F)(F)F (stereo not shown) [Ia-245] |  | HPLC-MS: logP = 1.98; mass | 
19 | O=C(/C=C/c1ccc(C(=O)Nc2ccccn2)c(C(F)(F)F)c1)NC(c1cccc(Cl)c1)C(F)(F)F (stereo not shown) [Ia-246] |  | HPLC-MS: logP = 3.37; mass | 
20 | CC(=O)NCc1ccc(/C=C/C(=O)NC(c2cccc(C(F)(F)F)c2)C(F)(F)F)cc1C (stereo not shown) [Ia-249] |  | HPLC-MS: logP = 2.9; mass | 
21 | Cc1cccnc1NC(=O)c1ccc(/C=C/C(=O)NC(c2cccc(C(F)(F)F)c2)C(F)(F)F)cc1C(F)(F)F (stereo not shown) [Ia-255] |  | HPLC-MS: logP = 3.19; mass | 
22 | CC1CC1NC(=O)c1ccc(C=CC(=O)NC(c2cccc(C(F)(F)F)c2)C(F)(F)F)cc1C(F)(F)F (stereo not shown) [Ia-261] |  |  | HPLC-MS: logP = 3.46; mass
23 | O=C(/C=C/c1ccc(C(=O)NCC(=O)NCC(F)(F)F)c(C(F)(F)F)c1)NC(c1cccc(C(F)(F)F)c1)C(F)(F)F (stereo not shown) [Ia-262] |  |  | HPLC-MS: logP = 3.11; mass
24 | O=C(/C=C/c1ccc(CNc2ccccn2)c(C(F)(F)F)c1)NC(c1cccc(C(F)(F)F)c1)C(F)(F)F (stereo not shown) [Ia-263] |  |  | HPLC-MS: logP = 2.2; mass
25 | O=C(/C=C/c1ccc(CNc2cc(Cl)ccn2)cc1)NC(c1cccc(C(F)(F)F)c1)C(F)(F)F (stereo not shown) [Ia-265] |  |  | HPLC-MS: logP = 3.15; mass
26 | O=C(/C=C/c1ccc(CNC(=O)c2ccsc2)c(C(F)(F)F)c1)NC(c1cccc(C(F)(F)F)c1)C(F)(F)F (stereo not shown) [Ia-268] |  |  | HPLC-MS: logP = 3.92; mass

Source: patent US8889878B2, “Haloalky-substituted amides as insecticides and acaricides” (Bayer CropScience AG, priority 2009, dated 2014)
